# From publication PMC10847306, “The antibacterial activity and mechanism of a novel peptide MR-22 against multidrug-resistant Escherichia coli” (Frontiers in Cellular and Infection Microbiology, 2024)
# Like-named read-outs stand apart in the source and are kept apart here.
# Legend:
# E. coli ATCC 25922 [1] = assay type: cell-based, Escherichia coli
# Description: (§1) In order to study the activity of MR-22 in high-salt concentration, mice serum, different temperatures or trypsin, MIC once again conducted tests as described above.
# […] The resulting solutions were subjected to MIC testing to evaluate any alterations in the antimicrobial activity of MR-22.
# (§2) To assess the thermal stability of MR-22, it was subjected to various temperatures (40°C, 60°C, 80°C, and 100°C) for 30 min. Then, reducing to room temperature, and the MIC was subsequently determined.
# (§3) MR-22 was mixed with a solution containing 1 μg/ml of trypsin and incubated at 37°C for 2 to 12h. Then, trypsin inactivation was carried out at 60°C for 30 min. The antimicrobial activity of the samples was tested to assess the activity of MR-22 and its analogs after the treatment by trypsin. The untreated MR-22 served as the control group for comparative analysis.
# E. coli ATCC 25922 [2] = test: Membrane permeability assay (PI, flow cytometry); assay type: cell-based, Escherichia coli; settings: 1 h, untreated 0.79%
# Description: (§4) According to the previously described method ([Fadhel Abbas Albaayit et al., 2022]), bacterial suspensions were diluted with PBS to concentration of 1.0×10^6 CFU/mL. […] 10 μM of propidium iodide (PI; Sigma, US) was added to each group and incubated at 37°C for 15 min in the dark. The samples were analyzed using a CytoFLEX flow cytometry (Beckman Coulter, USA), and the positive rate of PI was utilized as an indicator of bacterial membrane permeability.
# E. coli E19 [3] = test: Membrane permeability assay (PI, flow cytometry); assay type: cell-based, Escherichia coli; settings: 1 h, untreated 2.13%
# Description: as §4
# E. coli E19 [4] = test: Mice peritonitis model; assay type: in vivo; settings: C57BL/6J mice
# Description: This study utilized female C57BL/6J mice aged 6-8 weeks, weight range of 18-20 g, which were obtained from SPF Biotechnology Co., Ltd (Beijing, China). The animals were housed under maintained on a standard 12 h light/12 h dark cycle. All animal experiments were conducted in accordance with the Ethical Principles in Animal Research adopted by Guizhou Medical University and were approved by the Institutional Animal Care and Use Committee.
# To evaluate the in vivo efficacy of MR-22, we used a mice peritonitis model. A total of 60 mice were divided into three groups: treatment group (10 mg/kg MR-22, intraperitoneal injection), positive control group (10 mg/kg imipenem, intraperitoneal injection), and normal control group (PBS, intraperitoneal injection). Peritonitis was induced by intraperitoneal injection of 1.0 × 10^8 CFU bacterial inoculum in 0.2 mL of E. coli E19. Survival rates were recorded every 12 h for 7 days.
# To study the protective effects of MR-22, 10 mice in each group were sacrificed, and peritoneal lavage fluid, blood, liver, and kidney were collected 36 h after administration. The number of colonies in peritoneal lavage fluid and blood were determined by culturing on LB agar, while the tissues were fixed in 4% paraformaldehyde and subjected to hematoxylin and eosin staining to study the morphology.
# E. coli ATCC 25922 [5] = test: microbe, parasite or virus in culture; settings: ATCC 25922, 18 h
# Description: (§5) The MIC were determined by a micro dilution method in Mueller-Hinton broth (MHB) ([Cuenca-Estrella et al., 2010]). The final concentration of bacterial suspension in MHB were 1.0×10^6 CFU/mL. The final concentration of MR-22 ranged 1 ~ 256 μg/mL in 96 wells plate broth at 37°C for 16~18 h. Imipenem was employed as positive control, bacterial grown without treatment as negative control and MHB as blank control. MIC determination was performed by reading the OD600 nm. Take 100 μL samples in holes that have never seen bacterial growth and place them on the LB agar board. The concentration of MR-22 with no bacterial growth was defined as the MBC.
# [6] = system: E. coli ATCC 25922 and E19; test: Reactive oxygen species measurement (DCFH-DA); assay type: cell-based, Escherichia coli; settings: DCFH-DA 10 μM, MR-22 1, 2, 4 × MIC, 1 h, 37°C; ex 488/em 525 nm
# Description: The fluorescence probe 2’,7’-dichlorodihydrofluorescein diacetate (DCFH-DA) was used to measure the intracellular generation of ROS. The bacterial suspension (1.0 × 10^6 CFU/mL) were mixed with DCFH-DA (the final concentration of 10 μM) and incubated for at 37°C 30 min in the dark. After incubation, the suspensions were treated with MR-22 (1, 2, 4 × MIC) at the indicated concentrations for 1 h at 37°C. The fluorescence intensity was evaluated using a multi-function fluorescent enzyme marker with an excitation wavelength of 488 nm and an emission wavelength of 525 nm. N-acetylcysteine (NAC) at a concentration of 24 mM was employed as a control agent for the purpose of quenching the production of reactive oxygen species.
# E. coli ATCC 25922 [7] = assay type: cell-based, Escherichia coli; settings: 1 μg/ml trypsin, 37°C, mean ± SD
# Description: as §3
# E. coli E19 [8] = assay type: cell-based, Escherichia coli; settings: 1 μg/ml trypsin, 37°C, mean ± SD
# Description: as §3
# [9] = system: E. coli ATCC 25922 and clinically drug resistant isolated strains; test: microbe, parasite or virus in culture; assay type: cell-based, Escherichia coli; settings: 18 h
# Description: as §5
# E. coli E19 [10] = assay type: cell-based, Escherichia coli
# Description: as §1
# E. coli ATCC 25922 and E19 were incubated in different concentrations MR-22 in MHB with 150 mM NaCl, 2 mM CaCl2, 10% mice serum and 10% FBS in 96-well plates and cultured at 37°C for 16 h. The resulting solutions were subjected to MIC testing to evaluate any alterations in the antimicrobial activity of MR-22.
# as §2, §3
substance,measurement,setting,value
H-MAKRRKKAKKKAKKAKKRRRRR-NH2 [MR-22],"MIC, 150 μM Na^+","E. coli ATCC 25922 [1]; ATCC 25922, 16 h",256 µg/mL
same,"MIC, 10% FBS","E. coli ATCC 25922 [1]; ATCC 25922, 16 h",16 µg/mL
same,"MIC, 10% Serum","E. coli ATCC 25922 [1]; ATCC 25922, 16 h",64 µg/mL
same,"MIC, 40°C 30 min","E. coli ATCC 25922 [1]; ATCC 25922, 16 h",16 µg/mL
same,"MIC, 60°C 30 min","E. coli ATCC 25922 [1]; ATCC 25922, 16 h",16 µg/mL
same,"MIC, 80°C 30 min","E. coli ATCC 25922 [1]; ATCC 25922, 16 h",16 µg/mL
same,"MIC, 100°C 30 min","E. coli ATCC 25922 [1]; ATCC 25922, 16 h",16 µg/mL
same,"MIC, Control","E. coli ATCC 25922 [1]; ATCC 25922, 16 h",16 µg/mL
same,"MIC, 1 μg/mL Trypsin","E. coli ATCC 25922 [1]; E. coli ATCC 25922, MR-22 incubated with 1 μg/ml trypsin at 37°C (2 to 12 h), trypsin inactivated 60°C 30 min",>256 µg/mL
same,PI fluorescence signals (PI-positive cells),E. coli ATCC 25922 [2]; 1 × MIC,9.19%
same,PI fluorescence signals (PI-positive cells),E. coli ATCC 25922 [2]; 2 × MIC,39.10%
same,PI fluorescence signals (PI-positive cells),E. coli ATCC 25922 [2]; 4 × MIC,53.20%
same,percentage of PI-positive cells,E. coli E19 [3]; 1 × MIC,7.83%
same,percentage of PI-positive cells,E. coli E19 [3]; 2 × MIC,14.35%
same,percentage of PI-positive cells,E. coli E19 [3]; 4 × MIC,25.14%
same,bacterial content in the peritoneal lavage fluid,"E. coli E19 [4]; E19 peritonitis, 10 mg/kg 1 h after infection, after 36 h, ten mice per group, control group 8.73 ± 0.38",7.23 ± 0.36 Log10CFU/mL
same,72-h survival rate,"E. coli E19 [4]; peritonitis by 1.0 × 10^8 CFU E. coli E19 i.p., 10 mg/kg intraperitoneal injection, infected group 0%",40%
same,MBC,E. coli ATCC 25922 [5],16 µg/mL
same,MIC,E. coli ATCC 25922 [5],16 µg/mL
same,ROS accumulation in bacteria,[6],increased significantly
same,Rate of inhibition after incubation with trypsin,E. coli ATCC 25922 [7]; 4 h,22.32 ± 1.71%
same,Rate of inhibition after incubation with trypsin,E. coli ATCC 25922 [7]; 8 h,3.40 ± 0.26%
same,Rate of inhibition after incubation with trypsin,E. coli ATCC 25922 [7]; 10 h,1.85 ± 0.18%
same,Rate of inhibition after incubation with trypsin,E. coli ATCC 25922 [7]; 12 h,1.33 ± 0.22%
same,Rate of inhibition after incubation with trypsin,E. coli E19 [8]; 4 h,17.74 ± 2.88%
same,Rate of inhibition after incubation with trypsin,E. coli E19 [8]; 8 h,5.41 ± 1.20%
same,Rate of inhibition after incubation with trypsin,E. coli E19 [8]; 10 h,4.49 ± 1.54%
same,Rate of inhibition after incubation with trypsin,E. coli E19 [8]; 12 h,0.64 ± 0.46%
same,MIC over all strains tested,[9],4 ~ 32 μg/mL
same,"MIC, 150 μM Na^+","E. coli E19 [10]; E19, 16 h",256 µg/mL
same,"MIC, 10% FBS","E. coli E19 [10]; E19, 16 h",32 µg/mL
same,"MIC, 10% Serum","E. coli E19 [10]; E19, 16 h",128 µg/mL
same,"MIC, 40°C 30 min","E. coli E19 [10]; E19, 16 h",32 µg/mL
same,"MIC, 60°C 30 min","E. coli E19 [10]; E19, 16 h",32 µg/mL
same,"MIC, 80°C 30 min","E. coli E19 [10]; E19, 16 h",32 µg/mL
same,"MIC, 100°C 30 min","E. coli E19 [10]; E19, 16 h",32 µg/mL
same,"MIC, Control","E. coli E19 [10]; E19, 16 h",32 µg/mL
same,"MIC, 1 μg/mL Trypsin","E. coli E19 [10]; E. coli E19, MR-22 incubated with 1 μg/ml trypsin at 37°C (2 to 12 h), trypsin inactivated 60°C 30 min",>256 µg/mL
